From article PMC2753600 (The FEBS journal, 2009)
Changes are numbered by the printed parent chain. Structures can show the parent of a compound that is named as a salt. Where two headings read alike, the source gives them in different places.

Assays:
Assay type in all cases: biochemical
[1] = biological target: T1, purified human MAO A Ser209Glu mutant (Homo sapiens, UniProt P21397, S209E); assay: Competitive inhibition of purified human MAO A Ser209Glu mutant; settings: for lower affinity for the Ser209Glu mutant than for the wild-type enzyme: purified Ser209Glu vs purified wild-type MAO A
T1 sequence (P21397 1-527 S209E): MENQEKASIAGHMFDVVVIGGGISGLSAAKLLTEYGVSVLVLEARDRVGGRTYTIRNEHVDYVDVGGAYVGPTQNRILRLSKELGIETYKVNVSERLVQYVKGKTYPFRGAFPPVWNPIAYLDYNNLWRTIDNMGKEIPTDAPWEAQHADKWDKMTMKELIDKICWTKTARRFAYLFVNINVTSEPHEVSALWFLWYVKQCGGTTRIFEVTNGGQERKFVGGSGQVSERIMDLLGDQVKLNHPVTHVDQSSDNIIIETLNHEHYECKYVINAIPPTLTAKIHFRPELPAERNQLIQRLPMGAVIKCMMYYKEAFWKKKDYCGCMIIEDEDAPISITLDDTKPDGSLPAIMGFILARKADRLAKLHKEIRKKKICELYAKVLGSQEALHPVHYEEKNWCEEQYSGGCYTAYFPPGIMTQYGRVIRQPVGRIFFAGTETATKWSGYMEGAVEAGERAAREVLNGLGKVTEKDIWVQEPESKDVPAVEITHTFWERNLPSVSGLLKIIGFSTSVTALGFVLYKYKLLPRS

[2] = biological target: T2, membrane-bound wild-type MAO A (Homo sapiens, UniProt P21397); assay: Steady-state kinetics of membrane-bound wild-type MAO A; settings: 50 mM potassium phosphate pH 7.5
T2 sequence (P21397 1-527): T1 sequence (P21397 1-527 S209E) with E209S

[3] = biological target: T3, membrane-bound MAO A Ser209Glu mutant (Homo sapiens, UniProt P21397, S209E); assay: Steady-state kinetics of membrane-bound MAO A Ser209Glu mutant; settings: 50 mM potassium phosphate pH 7.5
T3 sequence (P21397 1-527 S209E): T1 sequence (P21397 1-527 S209E)

[4] = biological target: T4, purified wild-type human MAO A (Homo sapiens, UniProt P21397); assay: Competitive inhibition of purified wild-type human MAO A
T4 sequence (P21397 1-527): T1 sequence (P21397 1-527 S209E) with E209S

[5] = biological target: T5, purified human MAO A Ser209Ala mutant (Homo sapiens, UniProt P21397, S209A); assay: Competitive inhibition of purified human MAO A Ser209Ala mutant
T5 sequence (P21397 1-527 S209A): T1 sequence (P21397 1-527 S209E) with E209A

Question: `Cc1nccc2c1[nH]c1ccccc12` [Harmane] was tested. Which “binding to the Ser209Glu mutant compared with wild-type or Ser209Ala MAO A” value ([1]; purified enzymes) did it give?
Answer: much more weakly

Question: With `O=C1Nc2ccccc2C1=O` [Isatin, isatin] as the compound, how does the “lower affinity for the Ser209Glu mutant than for the wild-type enzyme” value (from here on “lower affinity”) [1] read?
Answer: 20 fold

Question: For `CC(C)(N)Cc1ccccc1` [Phentermine, phentermine], which “lower affinity” value [1] is on record?
Answer: 13 fold

Question: `NCCc1ccccc1` [Phenylethylamine, β-phenylethylamine] was tested. Which Km [2] did it give?
Answer: 470 ± 40 µM

Question: And the kcat [2]?
Answer: 0.8095 ± 0.0177 s⁻¹

Question: And the Km [3]?
Answer: 850 ± 70 µM

Question: What about the kcat [3] of the same compound?
Answer: 1.068 ± 0.0238 s⁻¹

Question: Which Ki [4] does the source give for `Cc1ccc2c(c1)c1c3n2CCNC3CCC1` (stereo not drawn) [Pirlindole Mesylate, pirlindole mesylate] here?
Answer: 0.92 ± 0.04 µM

Question: And the Ki [5]?
Answer: 0.88 ± 0.18 µM

Question: What about the Ki [1] of the same compound?
Answer: 21.5 ± 1.36 µM

Question: For `c1cc2c(cc1C1CCCCC1)c1c3n2CCNC3CCC1` (stereo not drawn) [Tetrindole Mesylate, tetrindole mesylate], which Ki ([4]; competitive inhibition constant, purified wild-type human MAO A) is on record?
Answer: 5.27 ± 0.24 µM

Question: How did the Ki [4] turn out when `C[C@H](N)Cc1ccccc1` [d-Amphetamine, d-amphetamine] was run?
Answer: 3.69 ± 0.45 µM

Question: What about the Ki [5] of the same compound?
Answer: 4.72 ± 0.63 µM

Question: What about the Ki [1] of the same compound?
Answer: 609 ± 31.6 µM

Question: What about the “lower affinity” value [1] of the same compound?
Answer: 160 fold
